# Test results from US10328054B2, “Substituted pyrrolidines as mGluR5 antagonists” (Hua Medicine (Shanghai) Ltd., priority 2015, dated 2019).
# Target: recombinant rat mGluR5 (Rattus norvegicus (Rat), UniProt P31424)
# Assay: Functional calcium flux assay (FLIPR)
# Format: cell-based
# Conditions: HEK293 cells stably expressing recombinant rat mGluR5; inhibition of glutamate-evoked [Ca2+]i increase, 15 min incubation of test compound
# Protocol: For functional assays, HEK293 cells stably expressing recombinant rat mGluR5 were seeded in 384-well plates and dye loaded using Fluo-8. Cells were then washed to remove the un-incorporated dye. Antagonist evaluation was performed following a 15 min incubation of the test compound followed by the addition of submaximal concentration of glutamate. Intracellular calcium ([Ca^2+]i) measurements were performed using a fluorometric imaging plate reader (FLIPR, Molecular Devices). The glutamate-evoked increase in [Ca^2+]i in the presence of the test compounds was compared to the response to glutamate alone (the positive control). Antagonist inhibition curves were fitted with a 4-parameter logistic equation giving IC50 values, and Hill coefficients using an iterative nonlinear curve fitting algorithm.
# The tables below provide IC50 data in this assay. In the activity column, A=IC50>1,000 and <5,000 nM; B=IC50>500 and <1,000 nM and C=IC50<500 nM.
# Sequence of recombinant rat mGluR5 (P31424 21-1203): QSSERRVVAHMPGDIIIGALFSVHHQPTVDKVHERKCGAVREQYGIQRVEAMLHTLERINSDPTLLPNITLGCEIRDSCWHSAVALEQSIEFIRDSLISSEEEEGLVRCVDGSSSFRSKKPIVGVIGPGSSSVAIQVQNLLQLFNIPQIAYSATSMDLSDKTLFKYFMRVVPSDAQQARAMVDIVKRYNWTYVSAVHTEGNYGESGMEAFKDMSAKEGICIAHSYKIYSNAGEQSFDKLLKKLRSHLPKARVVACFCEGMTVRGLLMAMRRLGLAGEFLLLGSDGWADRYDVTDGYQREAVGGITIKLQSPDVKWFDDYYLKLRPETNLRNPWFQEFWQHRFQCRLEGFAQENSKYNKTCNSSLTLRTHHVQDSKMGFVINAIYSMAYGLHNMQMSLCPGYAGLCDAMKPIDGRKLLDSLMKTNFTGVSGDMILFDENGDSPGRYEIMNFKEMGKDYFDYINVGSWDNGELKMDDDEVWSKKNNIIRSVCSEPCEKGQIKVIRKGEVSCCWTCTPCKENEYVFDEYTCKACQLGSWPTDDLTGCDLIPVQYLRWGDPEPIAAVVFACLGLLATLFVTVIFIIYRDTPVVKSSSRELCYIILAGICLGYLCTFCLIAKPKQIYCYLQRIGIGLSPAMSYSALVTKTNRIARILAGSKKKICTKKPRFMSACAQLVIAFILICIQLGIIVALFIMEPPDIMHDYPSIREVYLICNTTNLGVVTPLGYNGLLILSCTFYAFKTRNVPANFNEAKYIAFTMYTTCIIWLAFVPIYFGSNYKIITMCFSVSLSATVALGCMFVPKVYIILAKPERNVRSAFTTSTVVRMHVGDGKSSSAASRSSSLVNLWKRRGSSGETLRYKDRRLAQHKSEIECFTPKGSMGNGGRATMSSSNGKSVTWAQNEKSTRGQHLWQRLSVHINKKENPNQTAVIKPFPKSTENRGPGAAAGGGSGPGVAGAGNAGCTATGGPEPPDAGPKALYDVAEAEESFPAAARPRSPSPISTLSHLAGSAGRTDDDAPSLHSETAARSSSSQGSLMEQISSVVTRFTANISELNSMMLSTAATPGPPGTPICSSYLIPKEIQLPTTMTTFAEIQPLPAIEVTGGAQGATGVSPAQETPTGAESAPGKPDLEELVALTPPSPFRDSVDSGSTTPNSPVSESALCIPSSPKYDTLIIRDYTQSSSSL
row,Structure (SMILES),IC50 [µM]
1,"N#Cc1cc(F)cc(N2CC3CC3(C#Cc3ccccn3)C2)c1 (stereo not drawn) [Example Compound 1, 3-fluoro-S-(1-(pyridin-2-ylethynyl)-3-azabicyclo[3.1.0]hexan-3-yl) benzonitrile]",< 0.5
2,"Fc1ccc(N2CC3CC3(C#Cc3ccccn3)C2)cc1 (centres unmarked) [Example Compound 2, 3-(4-fluorophenyl)-1-(pyridin-2-ylethynyl)-3-azabicyclo[3.1.0]hexane]",< 0.5
3,"FC(F)(F)Oc1ccc(N2CC3CC3(C#Cc3ccccn3)C2)cc1 (centres unmarked) [Example Compound 3, 1-(pyridin-2-ylethynyl)-3-(4-(trifluoromethoxy)phenyl)-3-azabicyclo[3.1.0]hexane]",1 to 5
4,Fc1cncc(N2CC3CC3(C#Cc3ccccn3)C2)c1 (centres unmarked) [Example Compound 4],< 0.5
5,"O=S(=O)(c1ccccc1)N1CC2CC2(C#Cc2ccccn2)C1 (centres unmarked) [Example Compound 5, 3-(phenylsulfonyl)-1-(pyridin-2-ylethynyl)-3-azabicyclo[3.1.0]hexane]",< 0.5
6,"Fc1ccc(N2CC3CC3(C#Cc3ccccn3)C2)nc1 (centres unmarked) [Example Compound 6, 3-(5-fluoropyridin-2-yl)-1-(pyridin-2-ylethynyl)-3-azabicyclo[3.1.0]hexane]",< 0.5
7,"N#Cc1cc(F)cc(N2CC3CC3(C#Cc3cnccn3)C2)c1 (centres unmarked) [Example Compound 7, 3-fluoro-5-(1-(pyrazin-2-ylethynyl)-3-azabicyclo[3.1.0]hexan-3-yl) benzonitrile]",< 0.5
8,"N#Cc1cc(F)cc(N2CC3CC3(C#Cc3ncccn3)C2)c1 (centres unmarked) [Example Compound 8, 3-fluoro-5-(1-(pyrimidin-2-ylethynyl)-3-azabicyclo[3.1.0]hexan-3-yl) benzonitrile]",< 0.5
9,Cc1cccnc1C#CC12CC1CN(c1cc(F)cc(C#N)c1)C2 (centres unmarked) [Example Compound 9],1 to 5
10,"C(#CC12CC1CN(c1ccccc1)C2)c1ccccn1 (centres unmarked) [Example Compound 10, 3-phenyl-1-(pyridin-2-ylethynyl)-3-azabicyclo[3.1.0]hexane]",< 0.5
11,"N#Cc1cc(F)cc(N2CC3CC3(C#Cc3cccnn3)C2)c1 (centres unmarked) [Example Compound 11, 3-fluoro-5-(1-(pyridazin-3-ylethynyl)-3-azabicyclo[3.1.0]hexan-3-yl)benzonitrile]",< 0.5
12,"N#Cc1cc(F)cc(N2CC3CC3(C#Cc3ccnc(Cl)c3)C2)c1 (centres unmarked) [Example Compound 12, 3-(1-((2-chloropyridin-4-yl)ethynyl)-3-azabicyclo[3.1.0]hexan-3-yl)-S-fluorobenzonitrile]",< 0.5
13,"Cc1cccc(C#CC23CC2CN(c2cc(F)cc(C#N)c2)C3)n1 (centres unmarked) [Example Compound 13, 3-fluoro-5-(1-((6-methylpyridin-2-yl)ethynyl)-3-azabicyclo[3.1.0]hexan-3-yl) benzonitrile]",< 0.5
14,"COc1cccc(C#CC23CC2CN(c2cc(F)cc(C#N)c2)C3)n1 (centres unmarked) [Example Compound 15, 3-fluoro-5-(1-((6-methoxypyridin-2-yl)ethynyl)-3-azabicyclo[3.1.0]hexan-3-yl) benzonitrile]",< 0.5
15,"Fc1ccccc1N1CC2CC2(C#Cc2ccccn2)C1 (centres unmarked) [Example Compound 16, 3-(2-fluorophenyl)-1-(pyridin-2-ylethynyl)-3-azabicyclo[3.1.0]hexane]",< 0.5
16,"Clc1ccccc1N1CC2CC2(C#Cc2ccccn2)C1 (centres unmarked) [Example Compound 17, 3-(2-chlorophenyl)-1-(pyridin-2-ylethynyl)-3-azabicyclo[3.1.0]hexane]",< 0.5
17,"Clc1cccc(N2CC3CC3(C#Cc3ccccn3)C2)c1 (centres unmarked) [Example Compound 18, 3-(3-chlorophenyl)-1-(pyridin-2-ylethynyl)-3-azabicyclo[3.1.0]hexane]",< 0.5
18,"Clc1ccc(N2CC3CC3(C#Cc3ccccn3)C2)cc1 (centres unmarked) [Example Compound 19, 3-(4-chlorophenyl)-1-(pyridin-2-ylethynyl)-3-azabicyclo[3.1.0]hexane]",0.5 to 1
19,"Fc1cc(Cl)cc(N2CC3CC3(C#Cc3ccccn3)C2)c1 (centres unmarked) [Example Compound 20, 3-(3-chloro-5-fluorophenyl)-1-(pyridin-2-ylethynyl)-3-azabicyclo[3.1.0]hexane]",< 0.5
20,"Fc1cc(Cl)ccc1N1CC2CC2(C#Cc2ccccn2)C1 (centres unmarked) [Example Compound 21, 3-(4-chloro-2-fluorophenyl)-1-(pyridin-2-ylethynyl)-3-azabicyclo[3.1.0]hexane]",0.5 to 1
21,"Fc1cc(N2CC3CC3(C#Cc3ccccn3)C2)ccc1Cl (centres unmarked) [Example Compound 22, 3-(4-chloro-3-fluorophenyl)-1-(pyridin-2-ylethynyl)-3-azabicyclo[3.1.0]hexane]",0.5 to 1
22,"N#Cc1ccnc(N2CC3CC3(C#Cc3ccccn3)C2)c1 (centres unmarked) [Example Compound 23, 2-(1-(pyridin-2-ylethynyl)-3-azabicyclo[3.1.0]hexan-3-yl)isonicotinonitrile]",< 0.5
23,"C(#CC12CC1CN(c1ccc3[nH]ccc3n1)C2)c1ccccn1 (centres unmarked) [Example Compound 24, 5-(1-(pyridin-2-ylethynyl)-3-azabicyclo[3.1.0]hexan-3-yl)-1H-pyrrolo[3,2-b]pyridine]",1 to 5
24,"C(#CC12CC1CN(c1ccc3[nH]cnc3c1)C2)c1ccccn1 (centres unmarked) [Example Compound 25, 5-(1-(pyridin-2-ylethynyl)-3-azabicyclo[3.1.0]hexan-3-yl)-1H-benzo[d]imidazole]",1 to 5
25,"O=C(c1cccc(Cl)c1)N1CC2CC2(C#Cc2ccccn2)C1 (centres unmarked) [Example Compound 26, (3-chlorophenyl)(1-(pyridin-2-ylethynyl)-3-azabicyclo[3.1.0]hexan-3-yl)methanone]",< 0.5

# Other lines, results leading:
row,IC50 [µM],Structure (SMILES)
1,< 0.5,"O=C(c1ccccn1)N1CC2CC2(C#Cc2ccccn2)C1 (centres unmarked) [Example Compound 27, pyridin-2-yl(1-(pyridin-2-ylethynyl)-3-azabicyclo[3.1.0]hexan-3-yl)methanone]"
2,< 0.5,"O=C(c1ccccc1)N1CC2CC2(C#Cc2ccccn2)C1 (centres unmarked) [Example Compound 28, phenyl(1-(pyridin-2-ylethynyl) 3-azabicyclo[3.1.0]hexan-3-yl)methanone]"
3,< 0.5,"O=C(Cc1ccccc1)N1CC2CC2(C#Cc2ccccn2)C1 (centres unmarked) [Example Compound 29, 2-phenyl-1-(1-(pyridin-2-ylethynyl)-3-azabicyclo[3.1.0]hexan-3-yl)ethanone]"
4,< 0.5,"O=C(c1ccccc1Cl)N1CC2CC2(C#Cc2ccccn2)C1 (centres unmarked) [Example Compound 30, (2-chlorophenyl) (1-(pyridin-2-ylethynyl)-3-azabicyclo[3.1.0]hexan-3-yl)methanone]"
5,< 0.5,"CCCCC(=O)N1CC2CC2(C#Cc2ccccn2)C1 (centres unmarked) [Example Compound 31, 1-(1-(pyridin-2-ylethynyl)-3-azabicyclo[3.1.0]hexan-3-yl)pentan-1-one]"
6,< 0.5,"O=C(CCc1ccccc1)N1CC2CC2(C#Cc2ccccn2)C1 (centres unmarked) [Example Compound 32, 3-phenyl-1-(1-(pyridin-2-ylethynyl)-3-azabicyclo[3.1.0]hexan-3-yl)propan-1-one]"
7,< 0.5,"O=C(c1ccc(Cl)cc1)N1CC2CC2(C#Cc2ccccn2)C1 (centres unmarked) [Example Compound 33, (4-chlorophenyl)(1-(pyridin-2-ylethynyl)-3-azabicyclo[3.1.0]hexan-3-yl)methanone]"
8,< 0.5,"O=S(=O)(c1cccc(Cl)c1)N1CC2CC2(C#Cc2ccccn2)C1 (centres unmarked) [Example Compound 34, 3-((3-chlorophenyl)sulfonyl)-1-(pyridin-2-ylethynyl)-3-azabicyclo[3.1.0]hexane]"
9,< 0.5,"O=S(=O)(c1ccc(Cl)cc1)N1CC2CC2(C#Cc2ccccn2)C1 (centres unmarked) [Example Compound 35, 3-((4-chlorophenyl)sulfonyl)-1-(pyridin-2-ylethynyl)-3-azabicyclo[3.1.0]hexane]"
10,< 0.5,"O=S(=O)(c1ccccc1Cl)N1CC2CC2(C#Cc2ccccn2)C1 (centres unmarked) [Example Compound 36, 3-((2-chlorophenyl)sulfonyl)-1-(pyridin-2-ylethynyl)-3-azabicyclo[3.1.0]hexane]"
11,< 0.5,"Cc1ccc(S(=O)(=O)N2CC3CC3(C#Cc3ccccn3)C2)cc1 (centres unmarked) [Example Compound 37, 1-(pyridin-2-ylethynyl)-3-tosyl-3-azabicyclo[3.1.0]hexane]"
12,< 0.5,"N#Cc1cccc(N2CC3CC3(C#Cc3ccccn3)C2)n1 (centres unmarked) [Example Compound 38, 6-(1-(pyridin-2-ylethynyl)-3-azabicyclo[3.1.0]hexan-3-yl)picolinonitrile]"
13,< 0.5,"Cc1nc(C#CC23CC2CN(c2cc(F)cc(C#N)c2)C3)cs1 (centres unmarked) [Example Compound 39, 3-fluoro-5-(1-((2-methylthiazol-4-yl)ethynyl)-3-azabicyclo[3.1.0]hexan-3-yl)benzonitrile]"
14,< 0.5,"N#Cc1cccc(N2CC3CC3(C#Cc3ccccn3)C2)c1 (centres unmarked) [Example Compound 40, 3-(1-(pyridin-2-ylethynyl)-3-azabicyclo[3.1.0]hexan-3-yl)benzonitrile]"
15,< 0.5,"O=C(c1cccc(F)c1)N1CC2CC2(C#Cc2ccccn2)C1 (centres unmarked) [Example Compound 41, (3-fluorophenyl)-(1-(pyridin-2-ylethynyl)-3-azabicyclo[3.1.0]hexan-3-yl)methanone]"
16,< 0.5,"O=S(=O)(c1ccccc1F)N1CC2CC2(C#Cc2ccccn2)C1 (centres unmarked) [Example Compound 42, 3-((2-fluorophenyl)sulfonyl)-1-(pyridin-2-ylethynyl)-3-azabicyclo[3.1.0]hexane]"
